The target in assay [1] is T1, human adenosine A2b receptor (Homo sapiens (Human), UniProt P29275). Briefly: Cellular in vitro reporter gene test for A2b receptor activity (CHO-K1, CRE-luciferase, NECA stimulation). The format is cell-based. Conditions: recombinant CHO-K1 cell line, CRE-luciferase reporter, antagonism of EC50 concentration of NECA; in some cases means of several determinations, rounded to two significant figures; read-out: A2b receptor IC50. The gist of the method:
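CHO-K1 cells with CRE-driven luciferase; antagonists co-incubated with NECA at its EC50, determined in a pre-experiment on each test day. Luciferase read by luminescence 3 h after NECA addition.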
A general note: A reporter such as luciferase makes a cellular process visible.

Assay [2] addresses T1, human adenosine A2b receptor. Briefly: Adenosine receptor radioligand binding assay, A2b ([3H]-CPX, HEK293 membranes). The following applies: radioligand [3H]-CPX, HEK293 membrane preparation; Cheng-Prusoff. The protocol:
(§1) B-2. Adenosine Receptor Binding Assays
(§2) The binding properties of the test compounds on adenosine receptors were determined in binding studies with radioligands. For this purpose, membrane preparations of the human adenosine receptor subtypes were produced from cell lines having recombinant receptor expression (CHO cells for the A1 receptor, HEK293 cells for the A2a, A2b and A3 receptors). The following radioligands were used in the experiments: [^3H]-DPCPX for the A1 receptor, [^3H]-CGS 21680 for the A2a receptor, [^3H]-CPX for the A2b receptor and [^125I]-AB-MECA for the A3 receptor. The test substances were each tested in 8 different concentrations and 2 repeat tests per concentration. The displacement of the particular radioligand by the test compound was expressed as percentage inhibition of the specific binding of the controls. The IC50 values (concentration which brings about half-maximum inhibition of the specific binding of the controls) and the Hill coefficients (nH) were determined by a non-linear regression analysis, using the competition curves obtained from the mean values of the repeat tests and conducting a curve fit according to the Hill equation: Y=D+[A−D/1+(C/C50)^nH] (Y=specific binding; A=left-hand asymptote of the curve; D=right-hand asymptote of the curve; C=substance concentration; C50=IC50; nH=rise factor).
(§3) The inhibition constant (Ki) was calculated by the Cheng-Prusoff equation: Ki=IC50/(1+L/KD) (L=concentration of the radioligand in the assay; KD=receptor affinity of the radioligand for the receptor, determined with a Scatchard plot). [Literature: A1 receptor: Townsend-Nicholson, A. and Schofield, P. R., J. Biol. Chem. 269: 2373-2376 (1994); A2a receptor: Luthin, D. R. et al., Mol. Pharmacol. 47: 307-313 (1995); A2b receptor: Stehle, J. H. et al., Mol. Endocrinol. 6: 384-393 (1992) and Linden et al., Mol. Pharmacol. 56: 705-713 (1999); A3 receptor: Salvatore, C. A. et al., Proc. Natl. Acad. Sci. U.S.A. 90: 10365-10369 (1993) and Jacobson, K. A. et al., Neuropharmacology 36: 1157-1165 (1997)].
(§4) Table 2 below lists the Ki values thus determined from these binding assays for representative working examples: […]

Assay [3] addresses human adenosine A1 receptor (Homo sapiens (Human), UniProt P30542). In words: Adenosine receptor radioligand binding assay, A1 ([3H]-DPCPX, CHO membranes). The following applies: radioligand [3H]-DPCPX, CHO membrane preparation; Cheng-Prusoff. The protocol:
as §1, §2, §3, §4

In assay [4] the target is human adenosine A2a receptor (Homo sapiens (Human), UniProt P29274). Briefly: Adenosine receptor radioligand binding assay, A2a ([3H]-CGS 21680, HEK293 membranes). The following applies: radioligand [3H]-CGS 21680, HEK293 membrane preparation; Cheng-Prusoff. The protocol:
as §1, §2, §3, §4

For assay [5], the target named is human adenosine A3 receptor (Homo sapiens (Human), UniProt P0DMS8). In words: Adenosine receptor radioligand binding assay, A3 ([125I]-AB-MECA, HEK293 membranes). The following applies: radioligand [125I]-AB-MECA, HEK293 membrane preparation; Cheng-Prusoff. The protocol:
as §1, §2, §3, §4

For assay [6], the system named is bladder tumours and breast tumours. The following applies: bladder and breast tumour animal models; cited from earlier work.
Assay [7] relates to IL-6 release by human fibroblast cell line LL29. Briefly: NECA-induced IL-6 release by LL29 fibroblasts (ELISA). The format is cell-based. The following applies: LL29 cells, NECA 10 μM, 24 hours incubation, IL-6 in supernatant by ELISA. The protocol: B-3. Measurement of NECA-Induced IL-6 Release by LL29 Fibroblasts
Stimulation of fibroblasts with adenosine or the adenosine analog 5′-N-ethylcarboxamidoadenosine (NECA) leads to release of the pro-inflammatory and pro-fibrotic cytokine IL-6 which can be prevented by inhibition of the A2b receptor.
Accordingly, confluent cells of the human fibroblast cell line LL29 were treated with the test substances and stimulated with NECA (10 μM). After an incubation time of 24 hours, the cell supernatant is removed and human IL-6 in the cell supernatant is determined by ELISA (Quantikine® IL6 ELISA, R&D Systems, Minneapolis, USA).
Table 3 below lists the IC50 values obtained in this way for inhibition of IL-6 release for some working examples: […]
(In general: ELISA stands for enzyme-linked immunosorbent assay.)

Another assay deals with colon cancer cell lines. Conditions: A2b receptor antagonist; cited from earlier work.
Assay [8] has as its system human pulmonary arterial endothelial and smooth muscle cells. The following applies: stimulation with adenosine analogue; cited from earlier work.
For the next assay, the system named is human fibroblasts. The following applies: stimulation with adenosine analogue; increased by hypoxia; cited from earlier work.

This is an account of results in US10428083B2, “Heterocyclylmethyl-thienouracile as antagonists of the adenosine-A2B-receptor” (BAYER PHARMA AKTIENGESELLSCHAFT, priority 2015, dated 2019).

For orientation: IC50 means the concentration that gives 50% inhibition. One may read the Ki as a measure of affinity in units of concentration, obtained from inhibition or displacement. A low value points to higher affinity.

T1 sequence (P29275 whole entry): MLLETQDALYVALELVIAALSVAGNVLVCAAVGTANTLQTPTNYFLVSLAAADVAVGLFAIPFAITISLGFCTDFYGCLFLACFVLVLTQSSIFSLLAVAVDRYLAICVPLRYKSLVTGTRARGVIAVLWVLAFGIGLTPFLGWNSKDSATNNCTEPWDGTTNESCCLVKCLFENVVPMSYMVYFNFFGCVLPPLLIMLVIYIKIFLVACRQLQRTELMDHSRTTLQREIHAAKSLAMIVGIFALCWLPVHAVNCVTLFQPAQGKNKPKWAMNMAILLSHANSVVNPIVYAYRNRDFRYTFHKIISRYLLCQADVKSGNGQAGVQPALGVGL
human adenosine A2a receptor, sequence (P29274 whole entry): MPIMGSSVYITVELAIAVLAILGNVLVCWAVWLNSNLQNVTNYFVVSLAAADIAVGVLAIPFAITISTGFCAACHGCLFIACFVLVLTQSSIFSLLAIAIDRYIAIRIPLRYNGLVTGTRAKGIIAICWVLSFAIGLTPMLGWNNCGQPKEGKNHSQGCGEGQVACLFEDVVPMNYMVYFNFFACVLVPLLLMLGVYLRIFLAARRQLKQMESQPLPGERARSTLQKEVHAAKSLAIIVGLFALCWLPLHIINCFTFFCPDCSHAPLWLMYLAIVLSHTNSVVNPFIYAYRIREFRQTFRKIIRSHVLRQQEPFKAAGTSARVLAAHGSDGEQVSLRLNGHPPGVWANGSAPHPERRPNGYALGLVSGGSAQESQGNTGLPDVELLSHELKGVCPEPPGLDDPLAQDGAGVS
human adenosine A3 receptor, sequence (P0DMS8 whole entry): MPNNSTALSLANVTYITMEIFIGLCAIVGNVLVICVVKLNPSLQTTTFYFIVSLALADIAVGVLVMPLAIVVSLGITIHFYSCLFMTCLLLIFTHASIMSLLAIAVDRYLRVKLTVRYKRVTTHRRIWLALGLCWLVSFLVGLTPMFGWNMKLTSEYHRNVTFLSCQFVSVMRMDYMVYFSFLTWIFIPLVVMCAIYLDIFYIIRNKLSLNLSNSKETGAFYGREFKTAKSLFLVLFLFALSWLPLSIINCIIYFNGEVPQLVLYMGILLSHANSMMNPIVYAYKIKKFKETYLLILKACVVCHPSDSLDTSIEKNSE
human adenosine A1 receptor, sequence (P30542 whole entry): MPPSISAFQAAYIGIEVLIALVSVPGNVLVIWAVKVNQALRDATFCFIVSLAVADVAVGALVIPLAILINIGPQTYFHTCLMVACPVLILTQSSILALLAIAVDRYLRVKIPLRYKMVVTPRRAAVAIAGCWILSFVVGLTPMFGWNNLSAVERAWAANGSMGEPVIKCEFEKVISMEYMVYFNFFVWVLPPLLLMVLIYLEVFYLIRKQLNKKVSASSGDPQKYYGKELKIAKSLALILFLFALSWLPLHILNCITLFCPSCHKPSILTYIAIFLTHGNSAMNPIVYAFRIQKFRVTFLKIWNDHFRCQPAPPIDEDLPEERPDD

Regarding `CCn1c(=O)c2c(C)c(CN3CCNC3=O)sc2n(CC2CCO2)c1=O` (single isomer, unassigned; enantiomer 1) [Example 66, 3-Ethyl-5-methyl-1-(oxetan-2-ylmethyl)-6-[(2-oxoimidazolidin-1-yl)methyl]thieno[2,3-d]pyrimidine-2,4(1H,3H)-dione (Enantiomer 1)], the IC50 in [1] amounted to 4.3 nM. The Ki in [2] worked out at 5.2 nM; in assay [3], 950 nM; in assay [4] it was 280 nM; in [5] it was 6800 nM.
For the compound `CCCn1c(=O)n(C2CC2)c(=O)c2[nH]c(-c3ccc(N(CC)C(=O)c4cccnc4)nc3)nc21` [ATL801], in assay [6], the metastasis result is “distinct reduction in metastasis” and the tumour growth entry is on record as “slowing of tumour growth”.
Consider `COCCn1c(=O)n(CCc2ccccc2)c(=O)c2c(C)c(CN3CCCC3=O)sc21` [Example 3, 1-(2-Methoxyethyl)-5-methyl-6-[(2-oxopyrrolidin-1-yl)methyl]-3-(2-phenylethyl)thieno[2,3-d]pyrimidine-2,4(1H,3H)-dione], for which the IC50 in assay [1] came out at 4.4 nM; in assay [7], 15 nM.
The corresponding values for `COCCn1c(=O)n(CCc2ccccc2)c(=O)c2c(C)c(CN3CCOC3=O)sc21` [Example 20, 1-(2-Methoxyethyl)-5-methyl-6-[(2-oxo-,3-oxazolidin-3-yl)methyl]-3-(2-phenylethyl)thieno[2,3-d]pyrimidine-2,4(1H,3H)-dione] are 3.6 nM and 5 nM.
With `CCn1c(=O)c2c(C)c(CN3CCNC3=O)sc2n(CCOC)c1=O` [Example 59, 3-Ethyl-1-(2-methoxyethyl)-5-methyl-6-[(2-oxoimidazolidin-1-yl)methyl]thieno[2,3-d]pyrimidine-2,4(1H,3H)-dione], the IC50 in [1] was 5.1 nM. Also, the Ki in assay [2] was 2.4 nM; in assay [3], 330 nM; in [4], 120 nM; in [5], 11000 nM.
Turning to `COCCn1c(=O)n(C(C)C)c(=O)c2c(C)c(CN3CCNC3=O)sc21` [Example 86, 3-Isopropyl-1-(2-methoxyethyl)-5-methyl-6-[(2-oxoimidazolidin-1-yl)methyl]thieno[2,3-d]pyrimidine-2,4(1H,3H)-dione], the IC50 in assay [1] was found to be 6.4 nM. The Ki in assay [2] worked out at 2.7 nM; in assay [3], 1100 nM; in assay [4], 270 nM; in assay [5] it was 160000 nM.
For the compound `COCCn1c(=O)n(CCc2ccccc2)c(=O)c2c(C)c(CN3CCN(C)C3=O)sc21` [Example 102, 1-(2-Methoxyethyl)-5-methyl-6-[(3-methyl-2-oxoimidazolidin-1-yl)methyl]-3-(2-phenylethyl)thieno[2,3-d]pyrimidine-2,4(1H,3H)-dione], the IC50 in assay [1] was 4.5 nM; in assay [7], 5 nM.
For `CCn1c(=O)c2c(C)c(Cn3cc[nH]c3=O)sc2n(CCOC)c1=O` [Example 109, 3-Ethyl-1-(2-methoxyethyl)-5-methyl-6-[(2-oxo-2,3-dihydro-1H-imidazol-1-yl)methyl]thieno[2,3-d]pyrimidine-2,4(1H,3H)-dione], the IC50 in assay [1] is 4.2 nM. Besides, the Ki in [2] was found to be 2.8 nM; in [3] it was 590 nM; in assay [4] it was 100 nM; in [5], 14000 nM.
`CCn1c(=O)c2c(C)c(Cn3nc[nH]c3=O)sc2n(CCC(F)(F)F)c1=O` [Example 113, 3-Ethyl-5-methyl-6-[(5-oxo-4,5-dihydro-1H-1,2,4-triazol-1-yl)methyl]-1-(3,3,3-trifluoropropyl)thieno[2,3-d]pyrimidine-2,4(1H,3H)-dione]: the IC50 in assay [1] was 8.1 nM. The results for the Ki in assay [2], in assay [3] and in [4] were 6.4 nM, 1500 nM and 1700 nM, respectively.
For `CCn1c(=O)c2c(C)c(Cn3cn[nH]c3=O)sc2n(CCC(F)(F)F)c1=O` [Example 116, 3-Ethyl-5-methyl-6-[(5-oxo-1,5-dihydro-4H-1,2,4-triazol-4-yl)methyl]-1-(3,3,3-trifluoropropyl)thieno[2,3-d]pyrimidine-2,4(1H,3H)-dione], in assay [1], the IC50 is 24 nM. The Ki in [2] came out at 12 nM; in [3] it was 3300 nM; in assay [4], 790 nM; in assay [5], 330 nM.
In the case of `[2H]C([2H])(c1sc2c(c1C)c(=O)n([C@H](C)C(F)(F)F)c(=O)n2CCOC)N1CCNC1=O` [Example 501, 1-(2-Methoxyethyl)-5-methyl-6-[(2-oxoimidazolidin-1-yl)(dideutero)methyl]-3-[(2R)-1,1,1-trifluoropropan-2-yl]thieno[2,3-d]pyrimidine-2,4(1H,3H)-dione], the IC50 in assay [1] amounted to 43 nM.
The same measure, in the same setting: to `[2H]C([2H])(c1sc2c(c1C)c(=O)n([C@@H](C)C(F)(F)F)c(=O)n2CCOC)N1CCNC1=O` [Example 502, 1-(2-Methoxyethyl)-5-methyl-6-[(2-oxoimidazolidin-1-yl)(dideutero)methyl]-3-[(2S)-1,1,1-trifluoropropan-2-yl]thieno[2,3-d]pyrimidine-2,4(1H,3H)-dione] belongs 18 nM; to `Cc1c(Cn2cc[nH]c2=O)sc2c1c(=O)n(CC(C)(C)C)c(=O)n2CCC(F)(F)F` [Example 505, 3-(2,2-Dimethylpropyl)-5-methyl-6-[(2-oxo-2,3-dihydro-H-imidazol-1-yl)methyl]-1-(3,3,3-trifluoropropyl)thieno[2,3-d]pyrimidine-2,4(1H,3H)-dione], 5 nM; to `COCCn1c(=O)n(CC(C)(C)C)c(=O)c2c(C)c(Cn3cc[nH]c3=O)sc21` [Example 506, 3-(2,2-Dimethylpropyl)-1-(2-methoxyethyl)-5-methyl-6-[(2-oxo-2,3-dihydro-1H-imidazol-1-yl)methyl]thieno[2,3-d]pyrimidine-2,4(1H,3H)-dione], 12 nM.
Still for that read-out and setting: with `[2H]C([2H])(c1sc2c(c1C)c(=O)n(C(C)C)c(=O)n2CCOC)N1CCNC1=NC#N` [Example 512, [1-{[3-Isopropyl-1-(2-methoxyethyl)-5-methyl-2,4-dioxo-1,2,3,4-tetrahydrothieno[2,3-d]pyrimidin-6-yl](dideutero)methyl}imidazolidin-2-ylidene]cyanamide] the figure was 5.1 nM; with `[2H]C([2H])(c1sc2c(c1C)c(=O)n(CC(F)(F)F)c(=O)n2CCOC)N1CCNC1=NC#N` [Example 513, [1-{[1-(2-Methoxyethyl)-5-methyl-2,4-dioxo-3-(2,2,2-trifluoroethyl)-1,2,3,4-tetrahydrothieno[2,3-d]pyrimidin-6-yl](dideutero)methyl}imidazolidin-2-ylidene]cyanamide], 8.4 nM.
Turning to `CCCn1c(=O)c2[nH]c(-c3ccc(OCC(=O)Nc4ccc(C#N)cc4)cc3)nc2n(CCC)c1=O` [MRS1754], in the assay on colon cancer cell lines, the “growth of colon cancer cell lines” value was “reduced growth”.
As to `CCNC(=O)[C@H]1O[C@@H](n2cnc3c(N)ncnc32)[C@H](O)[C@@H]1O` [NECA, 5′-(N-ethylcarboxamido)adenosine], the “release of ET-1 and IL-6” value in [8] is “release of ET-1 and IL-6”. The “release of IL-6” value with human fibroblasts was “release of IL-6”.
